According to patent US20210386367A1, “DEVICES AND SYSTEMS FOR GASTROINTESTINAL MICROBIOME DETECTION AND MANIPULATION” (Progenity, Inc., priority 2018, published 2021):
In brackets after ≈: the same amount, converted by molar mass. Several values for one entry are separate records, joined by “and”; a condition that tells them apart may be missing. Identical values can stand only once. Like-named read-outs stand apart in the source and are kept apart here.

Legend:
Type in all cases: cell-based
Streptococcus pyogenes = experiment: Broth microdilution MIC, 19 clinical isolates; conditions: for MIC50 / MIC90: Streptococcus pyogenes
Description: (§1) Minimal inhibitory concentration (MIC) values were determined by broth microdilution or agar dilution in accordance with guidelines from the Clinical and Laboratory Standards Institute (CLSI; (1) “Methods for Dilution Antimicrobial Susceptibility Tests for Bacteria That Grow Aerobically; Approved Standard; 11th ed.” CLSI standard M07-A11, 2018; (2) “Performance Standards for Antimicrobial Susceptibility Testing; Twenty-Eighth Informational Supplement,” CLSI document M100-S28, 2018; and (3) “Methods for Antimicrobial Susceptibility Testing of Anaerobic Bacteria; Approved Standard—Eighth Edition,” CLSI document M11-A8, 2012).
(§2) Tested aerobically by broth microdilution: • Escherichia coli, n=50 • Klebsiella spp., n=50 • Pseudomonas aeruginosa, n=50 • Streptococcus spp., n=50 • Staphylococcus aureus, n=50 • Enterococcus faecalis, n=50 • Enterobacter aerogenes, n=50 • Proteus mirabilis, n=50
(§3) Broth microdilution testing of aerobic bacteria was conducted in cation-adjusted Mueller Hinton broth (MHBII). For testing streptococci, lysed horse blood (LHB) was added to MHBII broth at a final concentration of 3%. Where LHB was used, it was added after filtering.
(§4) Broth microdilution susceptibility testing in 96-well microplates was conducted in accordance with CLSI methods (1) and (2). Automated liquid handlers were used to conduct serial dilutions and liquid transfers, including the Multidrop 384 (Labsystems, Helsinki, Finland), Biomek 2000, and the Biomek FX (Beckman Coulter, Fullerton, Calif.). All wells in columns 2 through 12 of a standard 96-well microdilution plate (Costar 3795) were filled with 150 μL of the appropriate diluent. Then, 300 μL of the test agents were added to the wells of column 1 of the plates at 100× the highest final concentration to be tested. Serial two-fold dilutions were made across the rows through column 11 using the Biomek 2000. The wells of column 12 contained no drug and served as the growth control wells. This plate served as the “mother plate” from which MIC assay plates or “daughter plates” were made.
(§5) The daughter plates were loaded with 190 μL per well of the appropriate medium using the Multidrop 384. The daughter plates were created using the Biomek FX which transferred 2 μL of drug solution from each well of a mother plate to each corresponding well of the daughter plate in a single step. A standardized inoculum of each test organism was prepared per CLSI methods (1) to equal a 0.5 McFarland standard, followed by a dilution of 1:20 for aerobes and 1:10 for anaerobes. The plates were then inoculated with 10 μL of the diluted inoculum using the Biomek 2000 from low to high drug concentration, resulting in a final concentration of approximately 5×10^5 CFU/mL per well. An un-inoculated plate was incubated in parallel for each medium for the purpose of assessing solubility of the drug in the test media.
(§6) Inoculated plates were stacked 3 or 4 high, covered with a sterile lid on the top plate, placed into boxes with CO2 planchets (streptococci) or plastic bags (all other isolates). Plates were incubated at 35° C. for 16-24 hr in ambient air for aerobes or for 42-48 hr in the anaerobic environment of the Bactron II anaerobe chamber (Sheldon Manufacturing Co.; Cornelius, Oreg.). Following incubation, the microplates were removed from the incubator and viewed from the bottom using a plate viewer. The MIC values were read and recorded as the lowest concentration of drug that inhibited visible growth of the organism as per CLSI methods (1) and (2).

Enterococcus faecalis = experiment: Broth microdilution MIC, 50 clinical isolates
How it was run: (§7)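 Medium: cation-adjusted MHB, plus 3% lysed horse blood for streptococci, which were incubated with CO2 planchets. Final inoculum approx. 5×10^5 CFU/mL; serial two-fold drug dilutions per CLSI.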

Streptococcus agalactiae = experiment: Broth microdilution MIC, 20 clinical isolates; conditions: for MIC50 / MIC90: Streptococcus agalactiae
Description: as §1, §2, §3, §4, §5, §6

[1] = test system: Viridans group Streptococcus; experiment: Broth microdilution MIC, 15 clinical isolates; conditions: for % S: MXF by FDA breakpoints; for Mode: modal MIC
Description: as §1, §2, §3, §4, §5, §6

[2] = test system: Streptococcus spp. clinical isolates; experiment: MIC distribution against clinical isolates
From the text: (n=19 S. pyogenes, n=20 S. agalactiae and n=20 Viridans group Streptococcus) clinical isolates (μg/mL).
(§8) As used herein, “minimum inhibitory concentration” or “MIC” refers to the lowest concentration of an antimicrobial agent, for example, an antimicrobial agent as described herein, required to inhibit the growth of an organism. […] “MIC90” represents the MIC value at which ≥90% of the strains within a test population are inhibited; the 90th percentile.
(§9) Many susceptibility testing methods are known in the art and can be used as described herein (see, e.g., Jorgensen and Ferraro (2009) Clinical Infectious Diseases 49:1749-1755; and Maurer et al. (2017) Infectious Disease Reports 9:6839; the entire contents of each of the foregoing are incorporated herein by reference). For example, antimicrobial susceptibility can be determined using conventional culture based methods such as the broth or agar dilution test. In these dilution tests, the bacterial isolate of interest is inoculated onto different media that include serial dilutions of an antimicrobial agent, and incubated under appropriate conditions (e.g., overnight at 37° C.) to allow for growth to occur. Following the incubation period, the media is examined to determine bacterial growth. The lowest concentration of antibiotic that prevents growth represents the minimal inhibitory concentration (MIC). Broth dilution tests can be miniaturized and mechanized allowing for reproducibility and high throughput.

[3] = test system: Streptococcus pyogenes clinical isolates; experiment: MIC distribution against clinical isolates
From the text: as §8, §9

[4] = test system: Viridans group Streptococci clinical isolates; experiment: MIC distribution against clinical isolates; conditions: 15 Viridans group Streptococci isolates
From the text: as §8, §9

Staphylococcus aureus = experiment: Broth microdilution MIC, 50 clinical isolates (28 MRSA)
How it was run: as §7

[5] = 15 Viridans group Streptococci clinical isolates
[6] = MIC 0.008 μg/mL, 54 Streptococcus spp. isolates
[7] = MIC 0.015 μg/mL, 54 Streptococcus spp. isolates
[8] = MIC 0.03 μg/mL, 54 Streptococcus spp. isolates
[9] = MIC 0.06 μg/mL, 54 Streptococcus spp. isolates
[10] = MIC 0.5 μg/mL, 54 Streptococcus spp. isolates
[11] = MIC 1 μg/mL, 54 Streptococcus spp. isolates
[12] = MIC 0.015 μg/mL, 19 S. pyogenes isolates
[13] = MIC 0.03 μg/mL, 19 S. pyogenes isolates
[14] = MIC 0.06 μg/mL, 19 S. pyogenes isolates

In the case of `CO/N=C(\C(=O)N[C@@H]1C(=O)N2C(C(=O)O)=C(CSc3nc(=O)c(=O)[nH]n3C)CS[C@H]12)c1csc(N)n1` [ceftriaxone], the “% S” value (Streptococcus pyogenes) is reported as 100%, the MIC range (Streptococcus pyogenes) is reported as 0.015 to 0.06 µg/mL and the Mode (Streptococcus pyogenes) is reported as 0.015 µg/mL. The MIC50 (Streptococcus pyogenes; read-out: MIC50) was 0.015 µg/mL (≈ 0.027 µM), the MIC90 (Streptococcus pyogenes; read-out: MIC90) was 0.03 µg/mL (≈ 0.0541 µM) and the Mode (Enterococcus faecalis) was over 64 µg/mL. It also gave an MIC50 (Enterococcus faecalis; Enterococcus faecalis, read-out: MIC50) of over 64 µg/mL, an MIC90 (Enterococcus faecalis; Enterococcus faecalis, read-out: MIC90) of over 64 µg/mL and an MIC50 (Enterococcus faecalis; listed as CTR) of over 64 µg/mL. For the same compound, the MIC90 (Enterococcus faecalis; listed as CTR) was over 64 µg/mL, the MIC50 (Streptococcus agalactiae; read-out: MIC50) was 0.06 µg/mL (≈ 0.108 µM) and the MIC90 (Streptococcus agalactiae; read-out: MIC90) was 0.06 µg/mL (≈ 0.108 µM). The MIC50 [1, 5] was 0.06 µg/mL (≈ 0.108 µM), the MIC90 [1, 5] was 0.5 µg/mL (≈ 0.902 µM) and the MIC range [1, 5] was 0.008 to 1 µg/mL. For the same compound, the “% S” value [1, 5] was 100%, the MIC50 ([1]; Streptococcus, read-out: MIC50) was 0.06 µg/mL (≈ 0.108 µM) and the MIC90 ([1]; Streptococcus, read-out: MIC90) was 0.5 µg/mL (≈ 0.902 µM). The Mode [1, 5] was 0.06 µg/mL, the “Cumulative percentage of isolates inhibited at MIC” value [2, 6] was 1.9% and the “Number of test isolates at MIC” value [2, 6] was 1. The “Cumulative percentage of isolates inhibited at MIC” value [2, 7] was 35.2%, the “Number of test isolates at MIC” value [2, 7] was 18 and the “Cumulative percentage of isolates inhibited at MIC” value [2, 8] was 51.9%. The “Number of test isolates at MIC” value [2, 8] was 9, the “Cumulative percentage of isolates inhibited at MIC” value [2, 9] was 87.0% and the “Number of test isolates at MIC” value [2, 9] was 19. The “Cumulative percentage of isolates inhibited at MIC” value [2, 10] was 98.1%, the “Number of test isolates at MIC” value [2, 10] was 1 and the “Cumulative percentage of isolates inhibited at MIC” value [2, 11] was 100.0%. For the same compound, the “Number of test isolates at MIC” value [2, 11] was 1, the “Cumulative percentage of isolates inhibited at MIC” value [3, 12] was 84.2% and the “Number of test isolates at MIC” value [3, 12] was 16. The “Cumulative percentage of isolates inhibited at MIC” value [3, 13] was 94.7%, the “Number of test isolates at MIC” value [3, 13] was 2 and the “Cumulative percentage of isolates inhibited at MIC” value [3, 14] was 100.0%. The “Number of test isolates at MIC” value [3, 14] was 1, the “Cumulative percentage of isolates inhibited at MIC” value ([4]; MIC 0.008 μg/mL) was 6.7% and the “Number of test isolates at MIC” value ([4]; MIC 0.008 μg/mL) was 1. For the same compound, the “Cumulative percentage of isolates inhibited at MIC” value ([4]; MIC 0.015 μg/mL) was 20.0%, the “Number of test isolates at MIC” value ([4]; MIC 0.015 μg/mL) was 2 and the “Cumulative percentage of isolates inhibited at MIC” value ([4]; MIC 0.03 μg/mL) was 33.3%. The “Number of test isolates at MIC” value ([4]; MIC 0.03 μg/mL) was 2, the “Cumulative percentage of isolates inhibited at MIC” value ([4]; MIC 0.06 μg/mL) was 66.7% and the “Number of test isolates at MIC” value ([4]; MIC 0.06 μg/mL) was 5. The “Cumulative percentage of isolates inhibited at MIC” value ([4]; MIC 0.5 μg/mL) was 93.3%, the “Number of test isolates at MIC” value ([4]; MIC 0.5 μg/mL) was 1 and the “Cumulative percentage of isolates inhibited at MIC” value ([4]; MIC 1 μg/mL) was 100.0%. For the same compound, the “Number of test isolates at MIC” value ([4]; MIC 1 μg/mL) was 1, the Mode (Staphylococcus aureus) was over 64 µg/mL and the MIC50 (Staphylococcus aureus; Staphylococcus aureus, read-out: MIC50) was 32 µg/mL (≈ 57.7 µM). It also gave an MIC90 (Staphylococcus aureus; Staphylococcus aureus, read-out: MIC90) of over 64 µg/mL and an MIC90 (Staphylococcus aureus; listed as CTR) of over 64 µg/mL.
With `CN[C@H](CC(C)C)C(=O)N[C@H]1C(=O)N[C@@H](CC(N)=O)C(=O)N[C@H]2C(=O)N[C@H]3C(=O)N[C@H](C(=O)N[C@H](C(=O)O)c4cc(O)cc(O)c4-c4cc3ccc4O)[C@H](O)c3ccc(c(Cl)c3)Oc3cc2cc(c3O[C@@H]2O[C@H](CO)[C@@H](O)[C@H](O)[C@H]2O[C@H]2C[C@](C)(N)[C@H](O)[C@H](C)O2)Oc2ccc(cc2Cl)[C@H]1O` [vancomycin, Vancomycin] the “% S” value (Streptococcus pyogenes) was 100%, the MIC range (Streptococcus pyogenes) was 0.25 to 0.5 µg/mL and the Mode (Streptococcus pyogenes) was 0.25 µg/mL. The MIC50 (Streptococcus pyogenes) was 0.25 µg/mL (≈ 0.173 µM), the MIC90 (Streptococcus pyogenes) was 0.5 µg/mL (≈ 0.345 µM) and the “% R” value (Enterococcus faecalis) was 26%. For the same compound, the “% S” value (Enterococcus faecalis) was 74% ^, the Mode (Enterococcus faecalis) was 0.5 µg/mL and the MIC50 (Enterococcus faecalis; Enterococcus faecalis) was 1 µg/mL (≈ 0.69 µM). For the same compound, the MIC90 (Enterococcus faecalis; Enterococcus faecalis) was over 32 µg/mL, the “% R” value (Enterococcus faecalis; listed as VAN) was 26% ^ and the MIC range (Streptococcus agalactiae; 20 Streptococcus agalactiae clinical isolates) was 0.25 to 1 µg/mL. For the same compound, the “% S” value (Streptococcus agalactiae; 20 Streptococcus agalactiae clinical isolates, MXF by FDA breakpoints) was 100%, the MIC50 (Streptococcus agalactiae) was 0.5 µg/mL (≈ 0.345 µM) and the MIC90 (Streptococcus agalactiae) was 0.5 µg/mL (≈ 0.345 µM). For the same compound, the Mode (Streptococcus agalactiae; modal MIC, 20 Streptococcus agalactiae clinical isolates) was 0.5 µg/mL, the MIC range [1, 5] was 0.25 to 1 µg/mL and the “% S” value [1, 5] was 100%. For the same compound, the MIC50 ([1]; Streptococcus) was 0.5 µg/mL (≈ 0.345 µM), the MIC90 ([1]; Streptococcus) was 0.5 µg/mL (≈ 0.345 µM) and the Mode [1, 5] was 0.5 µg/mL. For the same compound, the “Cumulative percentage of isolates inhibited at MIC” value [2, 11] was 100.0%, the “Cumulative percentage of isolates inhibited at MIC” value ([2]; listed as VAN) was 50.0% and 96.3% and the “Cumulative percentage of isolates inhibited at MIC” value ([3]; listed as VAN) was 89.5% and 100.0%. For the same compound, the “Cumulative percentage of isolates inhibited at MIC” value ([4]; MIC 1 μg/mL) was 100.0%, the “Number of test isolates at MIC” value ([4]; MIC 1 μg/mL) was 1 and the “% S” value (Staphylococcus aureus) was 100%. For the same compound, the MIC range (Staphylococcus aureus) was 0.25 to 1 µg/mL, the Mode (Staphylococcus aureus) was 0.5 µg/mL and the MIC50 (Staphylococcus aureus; Staphylococcus aureus) was 0.5 µg/mL (≈ 0.345 µM). The MIC90 (Staphylococcus aureus; Staphylococcus aureus) was 1 µg/mL (≈ 0.69 µM).
